From patent US7858635B2 (priority 2005, dated 2010)
Where two headings read alike, the source gives them in different places.

Tests used:
M1 muscarinic receptor = molecular target: T1, M1 muscarinic receptor (Homo sapiens, UniProt P11229); assay: Functional mobilization of intracellular calcium (FLIPR, Fluo-3), M1-CHO cells; assay type: cell-based; details: for Emax: 100% efficacy is the maximum response obtained with the Carbachol control, read-out: M1 Efficacy
T1 construct: expressed in transfected cells; host or cells: CHO cells (M1-CHO, under zeocin and G418 selection)
T1 sequence (P11229 1-460): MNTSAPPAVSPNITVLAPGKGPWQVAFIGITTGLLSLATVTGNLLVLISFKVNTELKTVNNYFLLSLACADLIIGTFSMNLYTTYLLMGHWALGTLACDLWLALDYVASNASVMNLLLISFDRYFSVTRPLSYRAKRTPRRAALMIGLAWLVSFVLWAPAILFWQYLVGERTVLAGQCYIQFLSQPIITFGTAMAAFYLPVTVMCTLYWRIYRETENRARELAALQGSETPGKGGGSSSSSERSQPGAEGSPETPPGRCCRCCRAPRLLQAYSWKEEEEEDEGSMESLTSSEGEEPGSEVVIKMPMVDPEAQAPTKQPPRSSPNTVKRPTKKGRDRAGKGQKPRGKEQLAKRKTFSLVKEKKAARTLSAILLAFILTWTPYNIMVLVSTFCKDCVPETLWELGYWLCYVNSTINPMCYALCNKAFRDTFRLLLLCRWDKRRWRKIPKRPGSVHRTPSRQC
Procedure: (§1) CHO cells expressing muscarinic receptors (M1 to M5) are grown as monolayers in tissue culture flasks at 37° C. in a humidified atmosphere containing 5% CO2 and passaged every 3-5 days. The growth media is Dulbecco's modified eagles medium (DMEM, Gibco Cat#12430-054), containing 25 mM Hepes and supplemented with Fetal Bovine Serum (Hyclone, cat# SH30071.03), 0.1 mM of MEM non-essential amino acids (GIBCO, Cat# 11140-050), 1 mM MEM Sodium Pyruvate (GIBCO Cat# 11360-070) and 100 units/ml of Penicillin G and 100 μg/ml of Streptomycin (GIBCO Cat# 15140-122). The recombinant muscarinic receptor cell lines are grown under antibiotic pressure with media containing 25 μm/ml zeocin and 500 μg/ml G418 (M1-CHO), 4 μg/ml puromycin, 50 μg/ml zeocin and 2.5 μm/ml blasticidin (M2 and M4-CHO) or 50 μg/ml zeocin and 4 μg/ml puromycin (M3 and M5-CHO).
(§2) Cells are harvested at 80-90% confluence using Versene (GIBCO Cat# 15040-066), collected by centrifugation and seeded 18-24 hrs prior to running the calcium assay at a density of 5,000-10,000 cells/well in […], clear-bottomed 384-well plates (BD Biocoat, poly-D-lysine, Cat#356663). The day of the experiment, the cells are washed with a plate washer (Bioteck Instruments, ELX 405) using bath1 buffer (140-mM NaCl, 4.5-mM KCL, 2-mM CaCl2, 1-mM MgCl2, 10-mM Hepes-Na, 10-mM Glucose, pH 7.4, with NaOH) containing 1 mM Probenecid. Next, the calcium dye Fluo-3 (25 μl/well of Fluo-3 μM at 4 μM, Molecular Probes F-1241, in Bath 1 buffer containing 1 mM Probenecid) is added to the 25 μl of Bath 1 remaining in each well after the plate wash and the dye is loaded at 37° C. in the tissue culture incubator for 60-90 min. The fluorescent dye is removed using the plate washer with Bath 1 containing 1 mM Probenecid, leaving 25 μl/well of this solution after the wash. Alternatively, cells can be loaded with the calcium indicator from Molecular Devices (Calcium 3 Assay Reagents, Cat # R7181) adding 5 μl of a 5× solution dye in Bath 1 containing 1 mM Probenecid (10 ml per dye flask cat# R7182 to generate a solution 20×) to 20 μl of the same buffer. After loading for 60 min, the experiment can be run without having to remove the dye.
(§3) Compounds are prepared at a 2× fold concentration in a 96-well plate (round bottom, Costar Corning cat# 3656), by reconstituting the pre-spotted compounds in bath 1 containing 1 mM probenecid. The final concentration DMSO is 0.5%, and the amount of DMSO is normalized across the assay plate. To determine an agonist action of the compounds on muscarinic receptors, the reconstituted compounds are added (25 μl compound/well) to the cell assay plate (containing 25 μl/well) using the multi-channel robotic system of the FLIPR 3 Instrument (Molecular Devices, Sunnyvale, Calif.). To determine a functional inhibitory action of the compounds on muscarinic receptors, the reconstituted compounds are added (25 μl compound/well) to the assay plate and pre-incubated for 15 min prior to adding 25 μl of Carbachol at 3× the EC80 for each muscarinic subtype. Alternatively, the compounds can be co-applied simultaneously with the agonist. In both assay modes, the fluorescence is recorded for 60 sec (excitation wavelength is […] and emission wavelength 540 nm) using the FLIPR 3 instrument.
(§4) The potency, efficacy and selectivity of the muscarinic compounds were evaluated by screening the compound activity across the whole family (M1 to M5 cells). Compounds were also screened for activity on other proteins such as other GPCRs and ion channels to determine selectivity on M4 receptors.

M4 muscarinic receptor = molecular target: T2, M4 muscarinic receptor (Homo sapiens, UniProt P08173); assay: Functional mobilization of intracellular calcium (FLIPR, Fluo-3), M4-CHO cells; assay type: cell-based; details: for Emax: 100% efficacy is the maximum response obtained with the Carbachol control, read-out: M4 Efficacy
T2 construct: expressed in transfected cells; host or cells: CHO cells (M4-CHO, under puromycin, zeocin and blasticidin selection)
T2 sequence (P08173 1-479): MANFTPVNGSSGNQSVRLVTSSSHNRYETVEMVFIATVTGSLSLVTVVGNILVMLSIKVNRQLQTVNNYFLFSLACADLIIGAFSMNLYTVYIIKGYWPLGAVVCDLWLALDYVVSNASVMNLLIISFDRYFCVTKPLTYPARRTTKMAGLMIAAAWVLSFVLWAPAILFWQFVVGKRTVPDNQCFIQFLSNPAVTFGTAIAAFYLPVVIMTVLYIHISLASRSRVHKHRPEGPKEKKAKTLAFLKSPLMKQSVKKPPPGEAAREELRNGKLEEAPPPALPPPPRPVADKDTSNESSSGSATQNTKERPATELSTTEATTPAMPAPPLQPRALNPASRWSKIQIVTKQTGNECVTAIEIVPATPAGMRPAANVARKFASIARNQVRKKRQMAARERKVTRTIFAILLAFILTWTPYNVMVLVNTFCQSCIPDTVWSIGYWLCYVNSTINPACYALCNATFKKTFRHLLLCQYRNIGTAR
Procedure: as §1, §2, §3, §4

[1] = compound nos. 1-454, M1-CHO cells, calcium mobilization
[2] = compound nos. 1-454, M4-CHO cells, calcium mobilization

Row | SMILES | Emax (M1 muscarinic receptor; compound nos. 1-454) | M1 Activity (M1 muscarinic receptor; [1]) | Emax (M4 muscarinic receptor; compound nos. 1-454) | M4 Activity (M4 muscarinic receptor; [2]) | M1 Activity (M1 muscarinic receptor; compound nos. 1-454) | M4 Activity (M4 muscarinic receptor; compound nos. 1-454) | Emax (M1 muscarinic receptor; compound nos. 455-509) | M1 Activity (M1 muscarinic receptor; compounds 455-509) | Emax (M4 muscarinic receptor; compound nos. 455-509) | M4 Activity (M4 muscarinic receptor; compounds 455-509)
1 | CCOC(=O)N1C2CCC1CC(N1CCC3(CC1)COc1ccc(Cl)cc13)C2 (stereo not drawn) [compound 99] | < 65% | +++ (activity was measured to be less than or equal to 0.7 μM) | < 55% | + (activity was measured to be greater than or equal to 4.0 μM) |  |  |  |  |  | 
2 | CCOC(=O)N1CCC(N2CCC3(CC2)CN(C(=O)CC)c2ccc(F)cc23)CC1 [compound 317] | < 65% | + (activity was measured to be greater than or equal to 3.0 μM) | < 55% | + (activity was measured to be greater than or equal to 4.0 μM) |  |  |  |  |  | 
3 | CCCOC(=O)N1C2CCC1CC(N1CCC3(CC1)CN(C(=O)OC)c1ccc(F)cc13)C2 (stereo not drawn) [compound 386] | < 65% |  | < 55% |  | ++ (activity was measured to be between 0.7 μM and 3.0 μM) | ++ (activity was measured to be between 0.1 μM and 4.0 μM) |  |  |  | 
4 | CCOC(=O)N1CCC(N2CCC3(CC2)CN(C(=O)c2ccc(F)cc2)c2ccc(F)cc23)CC1 [compound 77] | 65 to 85% | +++ (activity was measured to be less than or equal to 0.7 μM) | < 55% | ++ (activity was measured to be between 0.1 μM and 4.0 μM) |  |  |  |  |  | 
5 | Clc1ccc2c(c1)C1(CCN(C3CCCCC3)CC1)CO2 [compound 5] | 65 to 85% | +++ (activity was measured to be less than or equal to 0.7 μM) | > 70% | +++ (activity was measured to be less than or equal to 0.1 μM) |  |  |  |  |  | 
6 | CCOC(=O)N1CCC(N2CCC3(CC2)CN(C(C)=O)c2ccc(OC(F)(F)F)cc23)CC1 [compound 225] | < 65% | + (activity was measured to be greater than or equal to 3.0 μM) | < 55% | + (activity was measured to be greater than or equal to 4.0 μM) |  |  |  |  |  | 
7 | Cc1cc(C(=O)N2CC3(CCN(C4CC5CCC(C4)N5C(=O)O[C@H]4CCOC4)CC3)c3cc(F)ccc32)nn1C (stereo partly drawn) [compound 233] | 65 to 85% | +++ (activity was measured to be less than or equal to 0.7 μM) | > 70% | +++ (activity was measured to be less than or equal to 0.1 μM) |  |  |  |  |  | 
8 | CC(=O)N1CC2(CCN(C3CCCC(C(F)(F)F)C3)CC2)c2cc(F)ccc21 (stereo not drawn) [compound 425] | < 65% |  | < 55% |  | + (activity was measured to be greater than or equal to 3.0 μM) | + (activity was measured to be greater than or equal to 4.0 μM) |  |  |  | 
9 | CCOC(=O)N1CCC(N2CCC3(CC2)CN(C(C)=O)c2ccc(-c4ccc(C(F)(F)F)cc4)cc23)CC1 [compound 295] | 65 to 85% | +++ (activity was measured to be less than or equal to 0.7 μM) | 55 to 70% | +++ (activity was measured to be less than or equal to 0.1 μM) |  |  |  |  |  | 
10 | O=C(O[C@@H]1CCOC1)N1C2CCC1CC(N1CCC3(CC1)C(=O)Nc1ccccc13)C2 (stereo partly drawn) [compound 336] | < 65% | + (activity was measured to be greater than or equal to 3.0 μM) | < 55% | + (activity was measured to be greater than or equal to 4.0 μM) |  |  |  |  |  | 
11 | CCc1nsc(N2CCC(N3CCC4(CC3)CN(C(=O)N(C)C)c3ccccc34)CC2)n1 [compound 476] |  |  |  |  |  |  | > 100% | +++ (activity was measured to be less than or equal to 2.0 μM) | > 100% | +++ (activity was measured to be less than or equal to 2.0 μM)
12 | CC(C)OC(=O)N1C2CCC1CC(N1CCC3(CCc4ccccc43)CC1)C2 (stereo not drawn) [compound 285] | < 65% | ++ (activity was measured to be between 0.7 μM and 3.0 μM) | < 55% | + (activity was measured to be greater than or equal to 4.0 μM) |  |  |  |  |  | 
13 | CCOC(=O)N1C2CCC1CC(N1CCC3(CC1)CN(C(=O)c1ccno1)c1ccc(F)cc13)C2 (stereo not drawn) [compound 88] | 65 to 85% | +++ (activity was measured to be less than or equal to 0.7 μM) | < 55% | ++ (activity was measured to be between 0.1 μM and 4.0 μM) |  |  |  |  |  | 
14 | O=C(C1CC1)N1CC2(CCN(C3CC4CCC(C3)N4C(=O)OC3CCC3)CC2)c2cc(F)ccc21 (stereo not drawn) [compound 379] | 65 to 85% |  | 55 to 70% |  | +++ (activity was measured to be less than or equal to 0.7 μM) | ++ (activity was measured to be between 0.1 μM and 4.0 μM) |  |  |  | 
15 | CCC(=O)CCN1CC2(CCN(C[C@@H]3C[C@H]4C=C[C@H]3C4)CC2)c2cc(F)ccc21 [compound 12] | < 65% | +++ (activity was measured to be less than or equal to 0.7 μM) | < 55% | ++ (activity was measured to be between 0.1 μM and 4.0 μM) |  |  |  |  |  | 
